According to the supplement of paper PMC7021759:
± gives the standard deviation of the averaged measurements.

Test system: SK-N-MM (SKNMM-MYCN, doxycycline-inducible MYCN)
Assay: area under dose-response curve (CellTiter-Glo viability normalised to plate controls) (AUC (arbitrary units)); higher = more loss of viability; extreme values may be limits of the assay
Method in brief: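 For each compound, area under the dose-response curve was calculated from log2 CellTiter-Glo luminescence normalised to the positive and negative controls on each plate. The cells were SK-N-MM with doxycycline-inducible MYCN, plated at 1250 cells/100 μL in 96-well plates and moved to medium with or without doxycycline about 24 h later. Two days after that, 10-point 1:3 dilution series were pin-transferred (890-fold stock dilution), with re-dosing on day 4 and readout 3 or 8 days after drugging.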

[1] = MYCN induction (doxycycline): +doxycycline (MYCN induced), time after drugging: 3 days
[2] = MYCN induction (doxycycline): +doxycycline (MYCN induced), time after drugging: 8 days
[3] = MYCN induction (doxycycline): no doxycycline (MYCN not induced), time after drugging: 3 days
[4] = MYCN induction (doxycycline): no doxycycline (MYCN not induced), time after drugging: 8 days

Row | Structure (SMILES) | area under dose-response curve [1] | area under dose-response curve [2] | area under dose-response curve [3] | area under dose-response curve [4]
1 | Cn1c(=O)n(-c2ccc(C(C)(C)C#N)cc2)c2c3cc(-c4cnc5ccccc5c4)ccc3ncc21 [DACTOLISIB] | 73.9 | 132 | 62.3 | 96.3
2 | N[C@H](CCC(=O)N[C@@H](Cc1c[nH]c2ccccc12)C(=O)O)C(=O)O [GOLOTIMOD] | – | 0 | 0 | 12.7
3 | CC(C)n1nc(-c2ccc3oc(N)nc3c2)c2c(N)ncnc21 [INK-128] | 36.2 | 38.7 | 29.5 | 59.3
4 | CCC(=O)OCN1C(=O)C=CC1=O [MIRA-1] | – | – | – | 39
5 | O=c1[nH]c(=O)n([C@H]2C[C@H](O)[C@@H](CO)O2)cc1F [FLOXURIDINE] | 23.4 | 165 | 11.8 | 66.3
6 | CN[C@H]1CN(c2ccc3c(=O)c(C(=O)O)cn(-c4nccs4)c3n2)C[C@@H]1OC [VOSAROXIN] | 39.3 | 92.8 | 16.4 | 48.5
7 | O=C(/C=C\n1cnc(-c2cc(C(F)(F)F)cc(C(F)(F)F)c2)n1)NNc1cnccn1 [SELINEXOR] | 98.9 | 189 | 43.6 | 128
8 | Cc1cc(Nc2ncc(Cl)c(Nc3ccccc3S(=O)(=O)C(C)C)n2)c(OC(C)C)cc1C1CCNCC1 [CERITINIB] | 175 | 168 | 172 | 170
9 | CCC1(c2ccc(N)cc2)CCC(=O)NC1=O (centres undefined) [AMINOGLUTETHIMIDE] | 0 | 0 | 0 | –
10 | CO[C@H]1C[C@@H]2CC[C@@H](C)[C@@](O)(O2)C(=O)C(=O)N2CCCC[C@H]2C(=O)O[C@H]([C@H](C)C[C@@H]2CC[C@@H](OC(=O)C(C)(CO)CO)[C@H](OC)C2)CC(=O)[C@H](C)/C=C(\C)[C@@H](O)[C@@H](OC)C(=O)[C@H](C)C[C@H](C)/C=C/C=C/C=C/1C [TEMSIROLIMUS] | 8.87 ± 0.32 | – | – | 43.4
11 | CO[C@@H]1[C@H](N(C)C(=O)c2ccccc2)C[C@H]2O[C@]1(C)n1c3ccccc3c3c4c(c5c6ccccc6n2c5c31)C(=O)NC4 [MIDOSTAURIN] | 59.7 | 122 | 65.6 | 127
12 | CN(C)C/C=C/C(=O)Nc1ccc(C(=O)Nc2cccc(Nc3ncc(Cl)c(-c4c[nH]c5ccccc45)n3)c2)cc1 [THZ1] | 102 | 240 | 51.7 | 190
13 | O=c1[nH]c(=O)n([C@H]2C[C@H](O)[C@@H](CO)O2)cc1/C=C/Br [BRIVUDINE] | 0.716 | 11.1 | 0 | 0.883
14 | Cc1ncc(CNC(=O)N(CCCl)N=O)c(N)n1 [NIMUSTINE] | 0 | 0 | 0 | 0
15 | O=C(Nc1ccccc1-c1cn2c(CN3CCNCC3)csc2n1)c1cnc2ccccc2n1 [SRT1720] | 187 | 220 | 0.00298 | 213
16 | Cn1cnc2c(F)c(Nc3ccc(Br)cc3Cl)c(C(=O)NOCCO)cc21 [SELUMETINIB] | 0 | 0 | 0.45 | 18.9
17 | Nc1nccc2c1ncn2[C@@H]1C=C(CO)[C@@H](O)[C@H]1O [3-DEAZANEPLANOCIN] | 15.9 | 119 | 10.3 | 40.9
18 | COc1cc2nccc(Oc3ccc(NC(=O)Nc4cc(C)on4)c(Cl)c3)c2cc1OC [TIVOZANIB] | 0 | 0 | 0 | 0
19 | CCc1nc(N)nc(N)c1-c1ccc(Cl)cc1 [PYRIMETHAMINE] | 13.5 | 65.7 | 5.97 | 22.1
20 | CCN(CCO)CCCC(C)Nc1ccnc2cc(Cl)ccc12 (centres undefined) [HYDROXYCHLOROQUINE] | 0 | 0 | – | 0

Row | Structure (SMILES) | area under dose-response curve [1] | area under dose-response curve [2] | area under dose-response curve [3] | area under dose-response curve [4]
21 | Oc1ccc(C2=Cc3ccc(O)cc3OC2)cc1 [IDRONOXIL] | 38.3 | 77.4 | 17.5 | 46.3
22 | CO[C@@]12[C@H](COC(N)=O)C3=C(C(=O)C(C)=C(N)C3=O)N1C[C@@H]1N[C@@H]12 [MITOMYCIN C] | 11.1 | 100 | 4.39 | 78.3
23 | CC(=O)OC[C@H]1O[C@@H]([S-])[C@H](OC(C)=O)[C@@H](OC(C)=O)[C@@H]1OC(C)=O.CCP(CC)CC.[Au+] [AURANOFIN] | 199 | 223 | 188 | 208
24 | CC1(COc2ccc3c(c2)ncn3-c2ccc3cccc(N4CCC(N)CC4)c3n2)COC1 [CRENOLANIB] | 0 | 136 | 0 | 146
25 | COc1cc2nccc(Oc3ccc(NC(=O)C4(C(=O)Nc5ccc(F)cc5)CC4)cc3)c2cc1OC [CABOZANTINIB] | 0 | 0 | 0 | 0
26 | COc1cc(F)ccc1-c1ncnc(Nc2cccc(CS(C)(=N)=O)c2)n1 (centres undefined) | 50.3 | 123 | 34 | 131
27 | COc1cc([C@@H]2c3cc4c(cc3[C@@H](O[C@@H]3O[C@@H]5CO[C@@H](C)O[C@H]5[C@H](O)[C@H]3O)[C@H]3COC(=O)[C@H]23)OCO4)cc(OC)c1O [ETOPOSIDE] | 42.1 | 114 | 18.8 | 43.1
28 | Nc1ccn([C@@H]2O[C@H](CO)[C@@H](O)C2(F)F)c(=O)n1 [GEMCITABINE] | 72.2 | 299 | 43.4 | 139
29 | C[C@H]1C[C@H]2[C@@H]3CCC4=CC(=O)C=C[C@]4(C)[C@@]3(F)[C@@H](O)C[C@]2(C)[C@@]1(O)C(=O)CO [BETAMETHASONE] | 0 | 0 | 0 | –
30 | Cc1cc(C2CCCCC2)n(O)c(=O)c1 [CICLOPIROX] | 0 | 97.9 | 15.5 | 41.6
31 | Cc1c(N)nc([C@H](CC(N)=O)NC[C@H](N)C(N)=O)nc1C(=O)N[C@H](C(=O)N[C@H](C)[C@@H](O)[C@H](C)C(=O)N[C@H](C(=O)NCCc1nc(-c2nc(C(=O)NCCC[S+](C)C)cs2)cs1)[C@@H](C)O)[C@@H](OC1OC(CO)C(O)C(O)C1OC1OC(CO)C(O)C(OC(N)=O)C1O)c1cnc[nH]1 (some centres undefined) [BLEOMYCIN] | 0 | 0 | 0 | 0
32 | O=C(Nc1ccc(Nc2nccc(Nc3cc(C4CCCC4)[nH]n3)n2)cc1)Nc1cccc(C(F)(F)F)c1 [CD532] | 175 | 211 | 156 | 191
33 | CC(=O)c1ccc2c(c1)c1cc(C(C)=O)ccc1n2CCNC(C)C [CBL-0137] | 116 | 176 | 94.2 | 172
34 | C[C@H]1[C@H](OC(=O)CCC(=O)O)O[C@@H]2O[C@@]3(C)CC[C@H]4[C@H](C)CC[C@@H]1[C@@]24OO3 [ARTESUNATE] | 46.2 | 60 | 25.7 | 25.9
35 | Clc1ccc(NN=C(c2ccccc2)c2ccccn2)nc1 [JIB-04] | 33.4 | 152 | 17.8 | 37.1
36 | Nc1ccn([C@@H]2O[C@H](CO)[C@@H](O)[C@@H]2O)c(=O)n1 [CYTARABINE] | 40.4 | 221 | 33.7 | 132
37 | COc1cc2/c(=N/c3ccc(Br)cc3F)nc[nH]c2cc1OCC1CCN(C)CC1 [VANDETANIB] | 3.18 | 0 | 2.99 | 125
38 | COc1cc(Nc2c(C#N)cnc3cc(OCCCN4CCN(C)CC4)c(OC)cc23)c(Cl)cc1Cl [BOSUTINIB] | 0.583 | 0.0371 | 0.885 | 0.202
39 | O=C(NC[C@H](O)CN1CCc2ccccc2C1)c1ccnc(NC2CCC2)c1 | – | 23.4 | – | –
